Measurements from US5057324A, “Kallikrein inhibitor substance, a process for preparation and pharmaceutical compositions thereof” (priority 1987, dated 1991).

Tested on: formation of kallikrein
Assay: Inhibitory action against the formation of kallikrein (kaolin-activated human plasma, synthetic substrate)
Assay type: biochemical
Settings: human plasma diluted with saline, kaolin activation, substrate D-Pro-Phe-Arg-p-nitroaniline
Description: Kallikrein is a group of proteinase widely distributed in the plasma and tissues of various kinds of animals. […] The inhibitory action of the substance of the present invention against the formation of kallikrein was assayed according to the method described in Example 1 of European Patent Publication No.0259857. That is, in the primary reaction, kaolin suspension was added to the human plasma diluted with physiological saline. After a certain while, Lima Bean trypsin inhibitor was added to terminate the activation of kallikrein. In the second reaction, the amount of kallikrein formed in the primary reaction was measured by the use of a synthetic substrate specific to kallikrein, such as D-Pro-Phe-Arg-p-nitroaniline. In the above reaction system, the activity of the test substance to inhibit the formation of kallikrein was measured by mixing the test substance with the human plasma prior to addition of kaolin suspension.

CC(C(=O)O)c1cccc(C(=O)c2ccccc2)c1 (stereo not shown) [Ketoprofen]
IC50 = Concentration 50% inhibiting the formation of kallikrein: 700 µg/mL
